In article PMC6343074, “New Irreversible α‐L‐Iduronidase Inhibitors and Activity‐Based Probes” (Chemistry (Weinheim an Der Bergstrasse, Germany), 2018):

Experiments:
[1] = biological target: T1, rIDUA (human recombinant α-L-iduronidase, Aldurazyme) (Homo sapiens, UniProt P35475); experiment: fluorogenic 4-MU-IdoA activity assay; format: biochemical; conditions: pH 4.5, 60 min incubation, competition with 4-MU-IdoA; covalent; read-out: apparent IC50
T1 construct: gene IDUA; therapeutic recombinant enzyme (Aldurazyme, Genzyme), secreted lysosomal glycoprotein; chymotryptic active-site peptide Asn297-Leu303 with nucleophile Glu299
T1 sequence (P35475 28-653): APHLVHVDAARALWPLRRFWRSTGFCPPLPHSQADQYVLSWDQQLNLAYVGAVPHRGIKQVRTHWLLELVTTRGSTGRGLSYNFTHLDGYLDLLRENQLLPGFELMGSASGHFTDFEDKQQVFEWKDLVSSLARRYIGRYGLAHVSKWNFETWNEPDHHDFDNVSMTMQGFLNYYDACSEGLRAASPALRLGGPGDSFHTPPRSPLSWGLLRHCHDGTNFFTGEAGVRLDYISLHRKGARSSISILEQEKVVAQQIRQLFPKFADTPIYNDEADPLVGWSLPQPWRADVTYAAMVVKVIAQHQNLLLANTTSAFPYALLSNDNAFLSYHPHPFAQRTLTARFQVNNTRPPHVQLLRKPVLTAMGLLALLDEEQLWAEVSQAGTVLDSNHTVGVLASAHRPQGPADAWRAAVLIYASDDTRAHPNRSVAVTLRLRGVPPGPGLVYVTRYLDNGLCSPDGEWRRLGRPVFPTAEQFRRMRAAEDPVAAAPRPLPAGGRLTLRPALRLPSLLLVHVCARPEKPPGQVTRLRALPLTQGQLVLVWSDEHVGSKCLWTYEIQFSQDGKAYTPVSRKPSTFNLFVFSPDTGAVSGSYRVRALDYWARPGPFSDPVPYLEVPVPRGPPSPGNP

[2] = biological target: T1, rIDUA (human recombinant α-L-iduronidase, Aldurazyme); experiment: biochemical; parameters: residual rIDUA activity after 1 h preincubation, fluorogenic 4-MU-alpha-L-IdoA substrate, pH 4.5, apparent IC50
Method: Apparent IC50 values of inhibitors and ABPs on recombinant human iduronidase and cell lysates Inhibitors and ABPs were diluted at various concentrations in 12.5 µL assay buffer and incubated with 12.5 µL rIDUA (5.8 ng, or 70 fmol) or fibroblast lysates (50 µg protein), both diluted in assay buffer, at 37°C for 1 h (rIDUA) or 4 h (fibroblasts lysates), at 1% (v/v) DMSO concentration. This was followed by iduronidase activity assay (30 min incubation time) described in the previous section. The detected 4-MU fluorescence at each concentration for each compound were normalized to the fluorescence from the control sample without inhibitor, and data were fitted with [inhibitor] vs response – variable slope (four parameters) function in Graphpad Prism 7.0 software to obtain apparent IC50 values. Iduronidase activity assay using 4-MU-α-L-IdoA as substrate Samples containing enzyme were diluted in assay buffer (150 mM citrate/Na2HPO4, pH 4.5, supplemented with 0.1% (v/v) Triton X-100, 0.15 M NaCl, 33 mM CaCl2, 33 mM MgCl2), and load onto a black flat-bottom 96-well plate (Greiner) in triplicates of 25 µL per well. Negative controls (blank) were prepared by substituting enzyme samples with buffer. For reaction, samples were added with 25 µL of 360 µM 4-MU-α-L-IdoA1 (prepared in assay buffer supplemented with 0.1 % (w/v) bovine serum albumin (BSA)), and incubated at 37°C for 30 min to 4h. […]

Row | SMILES | IC50 [1] [µM] | IC50 [2] [µM]
1 | [N-]=[N+]=NCCCCCCCCN1[C@@H]2[C@@H](C(=O)O)[C@@H](O)[C@H](O)[C@@H](O)[C@@H]21 (stereo partly drawn) [compound 1, inhibitor 1] | 40.6 ± 17 | –
2 | OC[C@H]1[C@@H](O)[C@H](O)[C@@H](O)[C@@H]2N[C@H]12 [compound 11, aziridine 11] | – | > 100
3 | [N-]=[N+]=NCCCCCCCCN1[C@@H]2[C@@H](CO)[C@@H](O)[C@H](O)[C@@H](O)[C@@H]21 (stereo partly drawn) [compound 12, alkyl aziridine 12] | 12.2 ± 3.24 | –
